Experimental data reported in ChEMBL document CHEMBL3885861, “Open TG-GATES”.

Organism: Rattus norvegicus
Assay: Open TG-GATES - Regimen: Daily Repeat
Format: toxicity, organism-based, Sprague-Dawley
Design: regimen Daily Repeat, gender Male, age 6 weeks
Settings: in vivo, po, 0 mg/kg, route gavage, dose level Control; for APTT / Bas / Eos / Fbg / Hb / Ht / Lym / MCH / MCHC / MCV / Mono / Neu / PT / Plat / RBC / Ret / WBC: tissue Blood; for KIDNEY_L / KIDNEY_R / KIDNEY_TOTAL: tissue Kidney; for LIVER: tissue Liver; for A/G / ALP / ALT / AST / BUN / CRE / Ca / Cl / DBIL / GLC / IP / K / LDH / Na / PL / RALB / TBIL / TC / TG / TP / gamma-GTP: tissue Plasma

For `CC(=N)S` [THIOACETAMIDE], the TERMINAL_BW (72 h, time 3 day) was 229.8 g, the APTT (72 h, time 3 day) was 17 s and the Bas (72 h, time 3 day) was 0%. It also gave an Eos (72 h, time 3 day) of 1%, a Fbg (72 h, time 3 day) of 232.2 mg/dL and a Hb (72 h, time 3 day) of 13.8 g/dL. For the same compound, the Ht (72 h, time 3 day) was 42.6%, the Lym (72 h, time 3 day) was 74.8% and the MCH (72 h, time 3 day) was 21.2 pg. For the same compound, the MCHC (72 h, time 3 day) was 32.5%, the MCV (72 h, time 3 day) was 65.3 fL and the Mono (72 h, time 3 day) was 8%. It also gave a Neu (72 h, time 3 day) of 16.4%, a PT (72 h, time 3 day) of 11.5 s and a Plat (72 h, time 3 day) of 111.4 x10_4/uL. For the same compound, the RBC (72 h, time 3 day) was 652.8 x10_4/ul, the Ret (72 h, time 3 day) was 7% and the WBC (72 h, time 3 day) was 125.1 x10_2/uL. It also gave a KIDNEY_L (72 h, time 3 day) of 1 g, a KIDNEY_R (72 h, time 3 day) of 1 g and a KIDNEY_TOTAL (72 h, time 3 day) of 2 g. It also gave an LIVER (72 h, time 3 day) of 10.7 g, an A/G (72 h, time 3 day) of 2.1 and an ALP (72 h, time 3 day) of 1014.4 IU/L. The ALT (72 h, time 3 day) was 31 IU/L, the AST (72 h, time 3 day) was 62.2 IU/L and the BUN (72 h, time 3 day) was 17 mg/dL. The CRE (72 h, time 3 day) was 0.6 mg/dL, the Ca (72 h, time 3 day) was 10.4 mg/dL and the Cl (72 h, time 3 day) was 104.2 meq/L. For the same compound, the DBIL (72 h, time 3 day) was 0.018 mg/dL, the GLC (72 h, time 3 day) was 196.6 mg/dL and the IP (72 h, time 3 day) was 7.6 mg/dL. For the same compound, the K (72 h, time 3 day) was 4.9 meq/L, the LDH (72 h, time 3 day) was 88 IU/L and the Na (72 h, time 3 day) was 137.6 meq/L. It also gave a PL (72 h, time 3 day) of 157.4 mg/dL, an RALB (72 h, time 3 day) of 4 g/dL and a TBIL (72 h, time 3 day) of 0.4 mg/dL. It also gave a TC (72 h, time 3 day) of 80.4 mg/dL, a TG (72 h, time 3 day) of 106.6 mg/dL and a TP (72 h, time 3 day) of 5.8 g/dL. It also gave a gamma-GTP (72 h, time 3 day) of 1 IU/L, a TERMINAL_BW ([…], time 7 day) of 254.8 g and a TERMINAL_BW ([…], time 14 day) of 312.2 g. It also gave a TERMINAL_BW ([…], time 28 day) of 377.5 g, an APTT ([…], time 7 day) of 17.3 s and a Bas ([…], time 7 day) of 0%. For the same compound, the Eos ([…], time 7 day) was 1%, the Fbg ([…], time 7 day) was 226.2 mg/dL and the Hb ([…], time 7 day) was 13.8 g/dL. It also gave a Ht ([…], time 7 day) of 41.8%, a Lym ([…], time 7 day) of 83.6% and an MCH ([…], time 7 day) of 20.8 pg. The MCHC ([…], time 7 day) was 33%, the MCV ([…], time 7 day) was 63.1 fL and the Mono ([…], time 7 day) was 4.4%. The Neu ([…], time 7 day) was 10.8%, the PT ([…], time 7 day) was 11.8 s and the Plat ([…], time 7 day) was 111.5 x10_4/uL. The RBC ([…], time 7 day) was 661.6 x10_4/ul, the Ret ([…], time 7 day) was 5.3% and the WBC ([…], time 7 day) was 145.6 x10_2/uL. The APTT ([…], time 14 day) was 17.4 s, the Bas ([…], time 14 day) was 0% and the Eos ([…], time 14 day) was 0.8%. For the same compound, the Fbg ([…], time 14 day) was 223.8 mg/dL, the Hb ([…], time 14 day) was 14.6 g/dL and the Ht ([…], time 14 day) was 44.1%. For the same compound, the Lym ([…], time 14 day) was 81%, the MCH ([…], time 14 day) was 20.2 pg and the MCHC ([…], time 14 day) was 33.1%. It also gave an MCV ([…], time 14 day) of 61.1 fL, a Mono ([…], time 14 day) of 5.8% and a Neu ([…], time 14 day) of 12.6%. The PT ([…], time 14 day) was 11.8 s, the Plat ([…], time 14 day) was 101.4 x10_4/uL and the RBC ([…], time 14 day) was 722.8 x10_4/ul. It also gave a Ret ([…], time 14 day) of 4.5%, a WBC ([…], time 14 day) of 145.6 x10_2/uL and an APTT ([…], time 28 day) of 17.5 s. It also gave a Bas ([…], time 28 day) of 0%, an Eos ([…], time 28 day) of 1% and a Fbg ([…], time 28 day) of 248.6 mg/dL. It also gave a Hb ([…], time 28 day) of 15.9 g/dL, a Ht ([…], time 28 day) of 46.8% and a Lym ([…], time 28 day) of 86.2%. For the same compound, the MCH ([…], time 28 day) was 19.7 pg, the MCHC ([…], time 28 day) was 33.9% and the MCV ([…], time 28 day) was 58 fL. For the same compound, the Mono ([…], time 28 day) was 4%, the Neu ([…], time 28 day) was 9.2% and the PT ([…], time 28 day) was 10.8 s. It also gave a Plat ([…], time 28 day) of 104.1 x10_4/uL, an RBC ([…], time 28 day) of 807.6 x10_4/ul and a Ret ([…], time 28 day) of 2.8%. The WBC ([…], time 28 day) was 194 x10_2/uL, the KIDNEY_L ([…], time 7 day) was 1.1 g and the KIDNEY_R ([…], time 7 day) was 1.1 g. For the same compound, the KIDNEY_TOTAL ([…], time 7 day) was 2.1 g, the KIDNEY_L ([…], time 14 day) was 1.2 g and the KIDNEY_R ([…], time 14 day) was 1.2 g. For the same compound, the KIDNEY_TOTAL ([…], time 14 day) was 2.3 g, the KIDNEY_L ([…], time 28 day) was 1.4 g and the KIDNEY_R ([…], time 28 day) was 1.4 g. The KIDNEY_TOTAL ([…], time 28 day) was 2.7 g, the LIVER ([…], time 7 day) was 11.8 g and the LIVER ([…], time 14 day) was 13.8 g. It also gave an LIVER ([…], time 28 day) of 15.2 g, an A/G ([…], time 7 day) of 1.8 and an ALP ([…], time 7 day) of 868.8 IU/L. For the same compound, the ALT ([…], time 7 day) was 27.4 IU/L, the AST ([…], time 7 day) was 56.8 IU/L and the BUN ([…], time 7 day) was 19.4 mg/dL. For the same compound, the CRE ([…], time 7 day) was 0.6 mg/dL, the Ca ([…], time 7 day) was 10.3 mg/dL and the Cl ([…], time 7 day) was 104.4 meq/L. The DBIL ([…], time 7 day) was 0.016 mg/dL, the GLC ([…], time 7 day) was 190.2 mg/dL and the IP ([…], time 7 day) was 7.1 mg/dL. For the same compound, the K ([…], time 7 day) was 5.2 meq/L, the LDH ([…], time 7 day) was 79 IU/L and the Na ([…], time 7 day) was 136.2 meq/L. For the same compound, the PL ([…], time 7 day) was 154.6 mg/dL, the RALB ([…], time 7 day) was 3.9 g/dL and the TBIL ([…], time 7 day) was 0.3 mg/dL. The TC ([…], time 7 day) was 75 mg/dL, the TG ([…], time 7 day) was 145.8 mg/dL and the TP ([…], time 7 day) was 6.1 g/dL. It also gave a gamma-GTP ([…], time 7 day) of 1 IU/L, an A/G ([…], time 14 day) of 2 and an ALP ([…], time 14 day) of 716 IU/L. The ALT ([…], time 14 day) was 32.2 IU/L, the AST ([…], time 14 day) was 64.8 IU/L and the BUN ([…], time 14 day) was 18.6 mg/dL. For the same compound, the CRE ([…], time 14 day) was 0.6 mg/dL, the Ca ([…], time 14 day) was 10.1 mg/dL and the Cl ([…], time 14 day) was 103 meq/L. It also gave a DBIL ([…], time 14 day) of 0.002 mg/dL, a GLC ([…], time 14 day) of 181.6 mg/dL and an IP ([…], time 14 day) of 7.1 mg/dL. The K ([…], time 14 day) was 4.7 meq/L, the LDH ([…], time 14 day) was 76 IU/L and the Na ([…], time 14 day) was 134.8 meq/L. The PL ([…], time 14 day) was 169 mg/dL, the RALB ([…], time 14 day) was 4.1 g/dL and the TBIL ([…], time 14 day) was 0.3 mg/dL. For the same compound, the TC ([…], time 14 day) was 81.6 mg/dL, the TG ([…], time 14 day) was 158.6 mg/dL and the TP ([…], time 14 day) was 6.1 g/dL. For the same compound, the gamma-GTP ([…], time 14 day) was 1.4 IU/L, the A/G ([…], time 28 day) was 1.9 and the ALP ([…], time 28 day) was 629 IU/L. The ALT ([…], time 28 day) was 29.4 IU/L, the AST ([…], time 28 day) was 63 IU/L and the BUN ([…], time 28 day) was 18.8 mg/dL. The CRE ([…], time 28 day) was 0.6 mg/dL, the Ca ([…], time 28 day) was 10.1 mg/dL and the Cl ([…], time 28 day) was 103 meq/L. For the same compound, the DBIL ([…], time 28 day) was 0 mg/dL, the GLC ([…], time 28 day) was 179.4 mg/dL and the IP ([…], time 28 day) was 6.8 mg/dL. The K ([…], time 28 day) was 4.5 meq/L, the LDH ([…], time 28 day) was 96.4 IU/L and the Na ([…], time 28 day) was 135.4 meq/L. The PL ([…], time 28 day) was 172.8 mg/dL, the RALB ([…], time 28 day) was 4.1 g/dL and the TBIL ([…], time 28 day) was 0.2 mg/dL. It also gave a TC ([…], time 28 day) of 83 mg/dL, a TG ([…], time 28 day) of 174.6 mg/dL and a TP ([…], time 28 day) of 6.3 g/dL. It also gave a gamma-GTP ([…], time 28 day) of 1.2 IU/L.
